Assay results: patent US9073855B2, “BCL-2 selective apoptosis-inducing agents for the treatment of cancer and immune diseases” (AbbVie Inc., priority 2008, dated 2015)

Tests used:
[1] = target: GST-Bcl-2 (Homo sapiens, UniProt P10415); experiment: TR-FRET binding assay, GST-Bcl-2 with F-Bak peptide probe; settings: for Ki: TR-FRET Binding Affinity
Procedure, shortened: (§1)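 Ki was derived with Wang's equation for competitive binding of two ligands. The read-out was time-resolved fluorescence after a 3 h room-temperature incubation, using a Tb-labelled antibody donor and the F-Bak peptide acceptor (excitation 340/35 nm). Test compounds entered as DMSO serial dilutions starting at 50 μM, which was the 2× concentration.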

[2] = target: GST-Bcl-XL (Homo sapiens, UniProt Q07817); experiment: TR-FRET binding assay, GST-Bcl-XL with F-Bak peptide probe; settings: TR-FRET Binding Affinity
Procedure, shortened: as §1

[3] = TR-FRET, Bcl-XL Ki divided by Bcl-2 Ki
[4] = ratio of TR-FRET Ki values, Bcl-XL over Bcl-2
[5] = GST-Bcl-XL, F-Bak peptide probe

Chain of GST-Bcl-2 (P10415 whole entry): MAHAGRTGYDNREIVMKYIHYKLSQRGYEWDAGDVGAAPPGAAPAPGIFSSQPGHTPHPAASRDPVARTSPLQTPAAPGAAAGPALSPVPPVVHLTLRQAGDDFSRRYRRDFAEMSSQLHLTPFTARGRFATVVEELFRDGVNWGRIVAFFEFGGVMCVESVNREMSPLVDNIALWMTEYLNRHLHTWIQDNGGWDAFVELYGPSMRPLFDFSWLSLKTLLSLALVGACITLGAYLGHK
Chain of GST-Bcl-XL (Q07817 whole entry): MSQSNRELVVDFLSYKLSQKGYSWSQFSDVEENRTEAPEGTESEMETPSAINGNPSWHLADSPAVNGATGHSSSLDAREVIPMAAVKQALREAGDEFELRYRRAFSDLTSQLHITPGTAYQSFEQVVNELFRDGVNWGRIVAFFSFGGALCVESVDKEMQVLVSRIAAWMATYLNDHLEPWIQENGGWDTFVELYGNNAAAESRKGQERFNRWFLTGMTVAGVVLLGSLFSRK

Structure (SMILES) | Ki [1] [nM] | Binding selectivity ratio (Bcl-XL Ki/Bcl-2 Ki) [1, 3] | Ki [2] [nM] | Ki ([1]; GST-Bcl-2, F-Bak peptide probe) [nM] | Binding selectivity ratio (Bcl-XL Ki/Bcl-2 Ki) [1, 4] | Ki [2, 5] [nM]
CC1(C)CCC(CN2CCN(c3ccc(C(=O)NS(=O)(=O)c4ccc(NCC5(F)CCOCC5)c([N+](=O)[O-])c4)c(Oc4cccc5[nH]nnc45)c3)CC2)=C(c2ccc(Cl)cc2)C1 [Example 514, 2-(1H-benzotriazol-4-yloxy)-4-(4-{[2-(4-chlorophenyl)-4,4-dimethylcyclohex-1-en-1-yl]methyl}piperazin-1-yl)-N-[(4-{[(4-fluorotetrahydro-2H-pyran-4-yl)methyl]amino}-3-nitrophenyl)sulfonyl]benzamide] | < 0.01 | >1041.3 | 10.4 |  |  | 
CC1(C)CCC(CN2CCN(c3ccc(C(=O)NS(=O)(=O)c4ccc(NCC5CN(S(C)(=O)=O)CCO5)c([N+](=O)[O-])c4)c(Oc4cccc5[nH]cnc45)c3)CC2)=C(c2ccc(Cl)cc2)C1 (centres unmarked) [Example 458, 2-(1H-benzimidazol-4-yloxy)-4-(4-{[2-(4-chlorophenyl)-4,4-dimethylcyclohex-1-en-1-yl]methyl}piperazin-1-yl)-N-{[4-({[4-(methylsulfonyl)morpholin-2-yl]methyl}amino)-3-nitrophenyl]sulfonyl}benzamide] | < 0.01 | 237.2 | 2.37 |  |  | 
CC1(C)CCC(CN2CCN(c3ccc(C(=O)NS(=O)(=O)c4cnc(OCC5CCOCC5)c(Cl)c4)c(Oc4cccc5[nH]ncc45)c3)CC2)=C(c2ccc(Cl)cc2)C1 [Example 427, 4-(4-{[2-(4-chlorophenyl)-4,4-dimethylcyclohex-1-en-1-yl]methyl}piperazin-1-yl)-N-{[5-chloro-6-(tetrahydro-2H-pyran-4-ylmethoxy)pyridin-3-yl]sulfonyl}-2-(1H-indazol-4-yloxy)benzamide] |  |  |  | 0.002 | 34408.6 | 85.6
CC1(C)CCC(CN2CCN(c3ccc(C(=O)NS(=O)(=O)c4cnc(OC[C@@H]5CCN(C(CF)CF)C5)c(Cl)c4)c(Oc4cccc5[nH]ncc45)c3)CC2)=C(c2ccc(Cl)cc2)C1 [Example 444, N-{[5-chloro-6-({(3R)-1-[2-fluoro-1-(fluoromethyl)ethyl]pyrrolidin-3-yl}methoxy)pyridin-3-yl]sulfonyl}-4-(4-{[2-(4-chlorophenyl)-4,4-dimethylcyclohex-1-en-1-yl]methyl}piperazin-1-yl)-2-(1H-indazol-4-yloxy)benzamide] | 0.112 | 727.6 | 81.5 |  |  | 
CC1(C)CCC(c2ccc(Cl)cc2)=C(CN2CCN(c3ccc(C(=O)NS(=O)(=O)c4ccc(NCCCN5CCOCC5)c([N+](=O)[O-])c4)c(Oc4ccccc4)c3)CC2)C1 [Example 19, 4-(4-{[2-(4-chlorophenyl)-5,5-dimethylcyclohex-1-en-1-yl]methyl}piperazin-1-yl)-N-({4-[(3-morpholin-4-ylpropyl)amino]-3-nitrophenyl}sulfonyl)-2-phenoxybenzamide] |  |  |  | 0.847 |  | 20
CN1CCN(Nc2ccc(S(=O)(=O)NC(=O)c3ccc(N4CCN(CC5=C(c6ccc(Cl)cc6)CC(C)(C)CC5)CC4)cc3Oc3cccc4[nH]cnc34)cc2[N+](=O)[O-])CC1 [Example 453, 2-(1H-benzimidazol-4-yloxy)-4-(4-{[2-(4-chlorophenyl)-4,4-dimethylcyclohex-1-en-1-yl]methyl}piperazin-1-yl)-N-({4-[(4-methylpiperazin-1-yl)amino]-3-nitrophenyl}sulfonyl)benzamide] | < 0.01 | 363.0 | 3.63 |  |  | 
CN(C)CCCOc1ccc(-c2ccc(Cl)cc2)c(CN2CCN(c3ccc(C(=O)NS(=O)(=O)c4ccc(NCC5CCOCC5)c([N+](=O)[O-])c4)c(Oc4ccccc4)c3)CC2)c1 [Example 116, 4-[4-({4′-chloro-4-[3-(dimethylamino)propoxy]-1,1′-biphenyl-2-yl}methyl)piperazin-1-yl]-N-({3-nitro-4-[(tetrahydro-2H-pyran-4-ylmethyl)amino]phenyl}sulfonyl)-2-phenoxybenzamide] |  |  |  | 0.036 |  | 8.3
O=C(NS(=O)(=O)c1ccc(NCCCN2CCOCC2)c(S(=O)(=O)C(F)(F)F)c1)c1ccc(N2CCN(Cc3ccccc3-c3ccc(Cl)cc3)CC2)cc1Oc1cccc2[nH]ccc12 [Example 65, 4-{4-[(4′-chloro-1,1′-biphenyl-2-yl)methyl]piperazin-1-yl}-2-(1H-indol-4-yloxy)-N-({4-[(3-morpholin-4-ylpropyl)amino]-3-[(trifluoromethyl)sulfonyl]phenyl}sulfonyl)benzamide] |  |  |  | 4.56 |  | 21.8
CC1(C)CCC(CN2CCN(c3ccc(C(=O)NS(=O)(=O)c4cnc(OCC5(F)CCOCC5)c(F)c4)c(Oc4cccc5[nH]ncc45)c3)CC2)=C(c2ccc(Cl)cc2)C1 [Example 416, 4-(4-{[2-(4-chlorophenyl)-4,4-dimethylcyclohex-1-en-1-yl]methyl}piperazin-1-yl)-N-({5-fluoro-6-[(4-fluorotetrahydro-2H-pyran-4-yl)methoxy]pyridin-3-yl}sulfonyl)-2-(1H-indazol-4-yloxy)benzamide] |  |  |  | 0.023 |  | 59.1
CC1(C)CCC(CN2CCN(c3ccc(C(=O)NS(=O)(=O)c4cnc(OCCC5CCCO5)c(Cl)c4)c(Oc4cccc5[nH]ncc45)c3)CC2)=C(c2ccc(Cl)cc2)C1 (centres unmarked) [Example 461, 4-(4-{[2-(4-chlorophenyl)-4,4-dimethylcyclohex-1-en-1-yl]methyl}piperazin-1-yl)-N-{[5-chloro-6-(2-tetrahydrofuran-2-ylethoxy)pyridin-3-yl]sulfonyl}-2-(1H-indazol-4-yloxy)benzamide] | 0.093 | 39.4 | 3.65 |  |  | 
CC1(C)CCC(CN2CCN(c3ccc(C(=O)NS(=O)(=O)c4ccc(NCC5CCOCC5)c([N+](=O)[O-])c4)c(Oc4ccccc4)c3)CC2)=C(c2ccc(Cl)cc2)C1 [Example 460, 4-(4-{[2-(4-chlorophenyl)-4,4-dimethylcyclohex-1-en-1-yl]methyl}piperazin-1-yl)-N-({3-nitro-4-[(tetrahydro-2H-pyran-4-ylmethyl)amino]phenyl}sulfonyl)-2-phenoxybenzamide] | 0.049 |  | 29 |  |  | 
CC1(C)CCC(CN2CCN(c3ccc(C(=O)NS(=O)(=O)c4cnc(OC[C@H]5CC[C@H](C#N)CC5)c(Cl)c4)c(Oc4cccc5[nH]ncc45)c3)CC2)=C(c2ccc(Cl)cc2)C1 [Example 492, N-({5-chloro-6-[(trans-4-cyanocyclohexyl)methoxy]pyridin-3-yl}sulfonyl)-4-(4-{[2-(4-chlorophenyl)-4,4-dimethylcyclohex-1-en-1-yl]methyl}piperazin-1-yl)-2-(1H-indazol-4-yloxy)benzamide] | < 0.01 | >4509.6 | 45.1 |  |  | 
CN(C)CC(=O)N1CCO[C@@H](COc2ncc(S(=O)(=O)NC(=O)c3ccc(N4CCN(CC5=C(c6ccc(Cl)cc6)CC(C)(C)CC5)CC4)cc3Oc3cccc4[nH]cnc34)cc2Cl)C1 [Example 424, 2-(1H-benzimidazol-4-yloxy)-N-[(5-chloro-6-{[(2R)-4-(N,N-dimethylglycyl)morpholin-2-yl]methoxy}pyridin-3-yl)sulfonyl]-4-(4-{[2-(4-chlorophenyl)-4,4-dimethylcyclohex-1-en-1-yl]methyl}piperazin-1-yl)benzamide] |  |  |  | < 0.01 | 782.5 | 7.82
CC1(C)CCC(CN2CCN(c3ccc(C(=O)NS(=O)(=O)c4cnc(OCC5(F)CCN(C(CF)CF)CC5)c(C(F)(F)F)c4)c(Oc4cccc5[nH]ncc45)c3)CC2)=C(c2ccc(Cl)cc2)C1 [Example 459, 4-(4-{[2-(4-chlorophenyl)-4,4-dimethylcyclohex-1-en-1-yl]methyl}piperazin-1-yl)-N-{[6-({4-fluoro-1-[2-fluoro-1-(fluoromethyl)ethyl]piperidin-4-yl}methoxy)-5-(trifluoromethyl)pyridin-3-yl]sulfonyl}-2-(1H-indazol-4-yloxy)benzamide] | < 0.01 | 541.6 | 5.42 |  |  | 
CC1(C)CCC(CN2CCN(c3ccc(C(=O)NS(=O)(=O)c4ccc(NC5CCN(CC(F)(F)F)CC5)c([N+](=O)[O-])c4)c(Oc4cccc5[nH]ccc45)c3)CC2)=C(c2ccc(Cl)cc2)C1 [Example 108, 4-(4-{[2-(4-chlorophenyl)-4,4-dimethylcyclohex-1-en-1-yl]methyl}piperazin-1-yl)-2-(1H-indol-4-yloxy)-N-[(3-nitro-4-{[1-(2,2,2-trifluoroethyl)piperidin-4-yl]amino}phenyl)sulfonyl]benzamide] |  |  |  | 2.34 |  | 59.6
CN(C)CCCNc1ccc(S(=O)(=O)NC(=O)c2ccc(N3CCN(CC4=C(c5ccc(Cl)cc5)CC(C)(C)CC4)CC3)cc2Oc2ccc3[nH]ccc3c2)cc1S(=O)(=O)C(F)(F)Cl [Example 67, N-[(3-{[chloro(difluoro)methyl]sulfonyl}-4-{[3-(dimethylamino)propyl]amino}phenyl)sulfonyl]-4-(4-{[2-(4-chlorophenyl)-4,4-dimethylcyclohex-1-en-1-yl]methyl}piperazin-1-yl)-2-(1H-indol-5-yloxy)benzamide] |  |  |  | 289 |  | > 660
COCCOCCN1CCO[C@H](CNc2ccc(S(=O)(=O)NC(=O)c3ccc(N4CCN(CC5=C(c6ccc(Cl)cc6)CC(C)(C)CC5)CC4)cc3Oc3cccc4[nH]cnc34)cc2[N+](=O)[O-])C1 [Example 455, 2-(1H-benzimidazol-4-yloxy)-4-(4-{[2-(4-chlorophenyl)-4,4-dimethylcyclohex-1-en-1-yl]methyl}piperazin-1-yl)-N-({4-[({(2R)-4-[2-(2-methoxyethoxy)ethyl]morpholin-2-yl}methyl)amino]-3-nitrophenyl}sulfonyl)benzamide] | 0.004 | 139.4 | 0.619 |  |  | 
